Here are results for 1 compound from patent EP3064205A1, “Therapeutic use of isomeric forms of 2-(4-chlorophenyl)quinolin-4-yl)(piperidin-2-yl)methanol” (Glionova AB, priority 2015, dated 2016).

Where two headings read alike, the source gives them in different places.

The subject of one experiment is Panc-1 cells. As to the kind of experiment: ATP viability assay (CellTiter-Glo), 3D culture, automatic drug screen. It counts as cell-based, human. Particulars: Panc-1, 3D culture, 72 h. An excerpt:
(§1) The following well-characterized human pancreatic ductal adenocarcinoma cell lines (ATCC) were used: HPAF II, BxPC-3, MIA-PaCa2 and Panc-1. These cell lines were generated from patient-derived tumors and are widely used model system to study pancreatic cancer (HPAF II: Kim YW, et al. Pancreas 4: 353-362, 1989; BxPC-3: Tan MH, et al. Cancer Invest. 4: 15-23, 1986; MIA-PaCa2: Yunis AA, et al. Int. J. Cancer 19: 128-135, 1977; Pacn-1: Lieber M, et al. Int. J. Cancer 15: 741-747, 1975).
(§2) Panc-1, HPAF II, KPC pancreatic adenocarcinoma cell lines were trypsin-treated and counted using the Casy Cell Counter according to the manufacturer's recommendations (GmbH). Subsequently, they were seeded onto round bottom non-tissue culture treated 96 well-plates (Falcon, BD NJ, USA) at a concentration of 2500 cells/well in 100 µl DMEM-F12 or phenol red-free DMEM-F12 medium, containing 10% FCS and supplemented with 20% methyl cellulose stock solution. For preparation of methylcellulose stock solution, 6 grams of methylcellulose powder (M0512, Sigma-Aldrich) was autoclaved in a 500 ml flask containing a magnetic stirrer (the methylcellulose powder is resistant to this procedure). The autoclaved methylcellulose was dissolved in preheated 250 ml basal medium (60°C) for 20 min (using the magnetic stirrer). Thereafter, 250 ml medium (room temperature) containing double amount of FCS (20%) was added to a final volume of 500 ml and the whole solution mixed overnight at 4°C. The final stock solution was aliquoted and cleared by centrifugation (5000g, 2 h, room temperature). Only the clear highly viscous supernatant was used for the spheroid assay (about 90-95% of the stock solution). […]
(§3) In order to confirm the results presented in figure 1, S1 was further tested in 2 different cell lines in 3D culture format, using an automatic drug screening assay. The effect of Vacquinol-1 RS (S1) on cell viability was measured after 72h using the CellTiter-Glo assay (Promega) adapted for 3D culture.
On the technique in general: In ATP-based viability assays light output follows the ATP content of the culture.

A further experiment concerns HPAF II cells. The description is as above. Particulars: 72 h, 30-10 µM. In kind it is cell-based, human.
From the text: as §1, §2, §3

In another experiment the test system is RXF 1183. In words: 3D clonogenic assay (PDX). Particulars: Homo sapiens, RXF 1183, Renal. In kind it is cell-based. As for the experimental part: (§4) The anti-tumor efficacy of S1 in the patient-derived tumor xenograft (PDX) tumor panel was assessed, where the efficacy of S1 in PDX tumor panel in the 96-well format, in 10 concentrations in duplicate was performed. Colony formation of tumor cell suspensions in a soft-agar matrix was observed and quantified. The output is IC50 values and dose response-relationships based on number of colonies in control and treatment wells, as identified by an automated image analysis algorithm. Stock solution of S1 was prepared in 100% DMSO at 10 mM concentration (stored at -20°C) and reused for each experiment. Compound final test concentrations: Dilution series ½ i.e.: 50µM, 15, 5, 1.5, 0.5, 0.15, 0.05, 0.015, 0.005 and 0.0015.
(§5) Tumor xenografts (also referred to as patient-derived tumor xenografts) were passaged as subcutaneous xenografts in NMRI nu/nu mice. Tumor xenograft were removed from mice under sterile conditions, mechanically disaggregated and subsequently incubated with an enzyme cocktail consisting of collagenase type IV (41 U/mL), DNase I (125 U/mL), hyaluronidase type III (100 U/mL) and dispase II (1.0 U/mL) in RPMI 1640 medium at 37°C for 60 - 120 minutes. Cells were passed through sieves of 100 µm and 40 µm mesh size and washed with RPMI 1640 medium. The percentage of viable cells was determined in a Neubauer-hemocytometer using trypan blue exclusion. Aliquots of the cells were frozen down, and stored in liquid nitrogen.
(§6) The clonogenic assay test was carried out in 96 well plate format. For each test a frozen aliquot of tumor cells prepared from tumor xenografts was thawed and assay plates were prepared as follows: each test well contained 3 layers of equal volume, 2 layers of semi-solid medium (bottom and top layer), and one layer of medium supernatant, with or without test compound. The bottom layer consisted of 0.05 mL/well Iscove's Modified Dulbecco's Medium (Invitrogen), supplemented with 20% (v/v) fetal calf serum (Sigma), 0.01% (w/v) gentamicin (Invitrogen) and 0.75% (w/v) agar (BD Biosciences). Tumor cells were added to 0.05 mL of the same culture medium supplemented with 0.4% (w/v) agar and plated onto the bottom layer. After 24 h, test compounds were added after serial dilution in DMSO and transfer in cell culture medium, and left on the cells for the duration of the experiment (continuous exposure, 0.05 mL drug overlay). Every dish included six untreated control wells and drug-treated groups in duplicate at 10 concentrations. Cultures were incubated at 37 °C and 7.5% CO2 in a humidified atmosphere for 8 to 13 days and monitored closely for colony growth using an inverted microscope. Within this period, ex vivo tumor growth lead to the formation of colonies with a diameter of >50 µm. […]

Another experiment relates to MAXF 574. As to the kind of experiment: 3D clonogenic assay (PDX). It counts as cell-based. Particulars: Homo sapiens, MAXF 574, Breast. As for the experimental part: as §4, §5, §6

In general, IC50 refers to the concentration needed to halve the response being measured. In the case of `O[C@H](c1cc(-c2ccc(Cl)cc2)nc2ccccc12)[C@@H]1CCCCN1` [S1, (R)-(2-(4-chlorophenyl)quinolin-4-yl)((S)-piperidin-2-yl)methanol], the decrease in viability in the experiment with Panc-1 cells (20-10 µM) was around 20%. The “viability compared to control” value in the experiment on Panc-1 cells (30 and 25 µM) is “marked decrease in viability”; in the experiment on HPAF II cells, “marked decrease in viability”. In addition, the IC50 with RXF 1183 (read-out: abs. IC50), in the experiment with RXF 1183 (read-out: rel. IC50), in the experiment on MAXF 574 (read-out: abs. IC50) and in the experiment with MAXF 574 (read-out: rel. IC50) was 50 µM throughout.
